Reference: patent US10155766B2, “Pyrazolopyrimidine antibacterial agents” (priority 2016, dated 2018)
“Also recorded” adds a separate entry of the source.

Experiments:
[1] = system: Burkholderia thailandensis (E 264); assay: microbe, parasite or virus in culture; assay type: cell-based; conditions: for zone of inhibition at 100 µM / zone of inhibition at 500 µM / zone of inhibition at 1000 µM: Burkholderia thailandensis, read-out: Zone of inhibition (diameter, in millimeter) B. thailandensis; for zone of inhibition at 100 µM: Conc. 0.1 mM; for zone of inhibition at 500 µM: Conc. 0.5 mM; for zone of inhibition at 1000 µM: Conc. 1.0 mM
[2] = system: Pseudomonas aeruginosa (ATCC 27853); assay: microbe, parasite or virus in culture; assay type: cell-based; conditions: for zone of inhibition at 100 µM / zone of inhibition at 500 µM / zone of inhibition at 1000 µM: Pseudomonas aeruginosa, ATCC27853, read-out: Zone of inhibition (diameter, in millimeter) P. aeruginosa; for zone of inhibition at 100 µM: Conc. 0.1 mM; for zone of inhibition at 500 µM: Conc. 0.5 mM; for zone of inhibition at 1000 µM: Conc. 1.0 mM
BtIspD = biological target: T1, BtIspD (Burkholderia thailandensis, UniProt Q2SWT6); assay type: binding
T1 construct: 6xHis (AVA0421 vector, 3C-cleavable) (N, cleaved yes); made in house; host or cells: E. coli BL21(DE3)R3 Rosetta Oxford
T1 sequence (Q2SWT6 1-236): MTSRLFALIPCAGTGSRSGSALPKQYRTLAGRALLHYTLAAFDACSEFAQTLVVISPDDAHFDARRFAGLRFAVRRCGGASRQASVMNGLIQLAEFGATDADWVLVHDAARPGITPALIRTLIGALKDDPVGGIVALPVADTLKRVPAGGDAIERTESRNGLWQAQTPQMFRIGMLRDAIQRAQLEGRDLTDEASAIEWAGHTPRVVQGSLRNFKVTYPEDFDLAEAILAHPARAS

BtIspE = assay type: binding, Burkholderia thailandensis

| SMILES | zone of inhibition at 100 µM [1] [mm] | zone of inhibition at 500 µM [1] [mm] | zone of inhibition at 1000 µM [1] [mm] | zone of inhibition at 100 µM [2] [mm] | zone of inhibition at 500 µM [2] [mm] | zone of inhibition at 1000 µM [2] [mm] | STD-NMR binding to BtIspD (in words) (BtIspD) | melting point [°C] | STD-NMR binding to BtIspE (in words) (BtIspE) | growth inhibition of B. thailandensis (in words) [1] | growth inhibition of P. aeruginosa (in words) [2] | change of % STD binding signal to BtIspE after subsequent addition of CDP (BtIspE) | change of % STD binding signal to BtIspE upon addition of ADP (BtIspE) | change of STD binding to BtIspD upon addition of CDP (BtIspD) | concentration at which inhibitory activity against B. thailandensis is shown [1] [µg/mL] |
| --- | --- | --- | --- | --- | --- | --- | --- | --- | --- | --- | --- | --- | --- | --- | --- |
| Cn1ncc2c(NCc3ccc(F)cc3)ncnc21 [Compound 16] | 0 | 9 | 18 | 0 | 12 | 18 |  |  |  |  |  |  |  |  |  |
| Cn1ncc2c(NCc3ccc(Cl)c(Cl)c3)ncnc21 [Compound 18] | 0 | 12 | 18 | 0 | 10 | 20 | strongest binders | 170 to 173 | high % STD values |  |  |  |  |  |  |
| CC(C)(C)n1ncc2c(NCc3ccc(Cl)c(Cl)c3)ncnc21 [Compound 19] | 0 | 16 | 20 | 0 | 12 | 16 |  | 120 to 123 |  |  |  |  |  |  |  |
| Cn1ncc2c(NCCc3ccccc3)ncnc21 [Compound 20] | 0 | 9 | 20 | 0 | 0 | 0 |  | 101 to 103 |  |  |  |  |  |  |  |
| Cn1ncc2c(NCCc3ccccc3F)ncnc21 [Compound 21] | 0 | 12 | 16 | 0 | 8 | 16 |  | 139 to 140 |  |  |  |  |  |  |  |
| Cn1ncc2c(NCCc3cccc(F)c3)ncnc21 [Compound 22] | 0 | 11 | 14 | 0 | 0 | 8 |  | 109 to 110 |  |  |  |  |  |  |  |
| Cn1ncc2c(NCCc3ccc(F)cc3)ncnc21 [Compound 23] | 0 | 12 | 22 | 0 | 9 | 17 |  | 106 to 107 |  |  |  |  |  |  |  |
| Cn1ncc2c(NCCc3ccc(Cl)cc3)ncnc21 [Compound 24] | 0 | 10 | 13 | 0 | 0 | 10 |  |  |  |  |  |  |  |  |  |
| Cn1ncc2c(NCCc3ccc(O)cc3)ncnc21 [Compound 25] | 0 | 0 | 0 | 0 | 0 | 0 | strongest binders | 182 to 184 | weaker binder | Activity was not detected; also recorded: did not show zone of inhibition activity | Activity was not detected; also recorded: did not show zone of inhibition activity | loses all binding signal entirely | no change |  |  |
| Cn1ncc2c(NCCc3c(F)cccc3Cl)ncnc21 [Compound 26] | 0 | 13 | 21 | 0 | 11 | 19 | strongest binders | 195 to 196 |  |  |  |  |  | large decrease |  |
| CC(C)(C)n1ncc2c(NCCc3c(F)cccc3Cl)ncnc21 [Compound 27] | 0 | 12 | 16 | 0 | 0 | 0 | strongest binders | 140 to 142 |  |  |  |  |  | large decrease |  |
| CC(C)(C)n1ncc2c(NCCc3c(Cl)cccc3Cl)ncnc21 [Compound 28] | 0 | 11 | 18 | 0 | 0 | 0 |  | 154 to 156 |  |  |  |  |  |  |  |
| NC[C@H]1O[C@H](O[C@H]2[C@H](O)[C@@H](O[C@H]3O[C@H](CO)[C@@H](O)[C@H](N)[C@H]3O)[C@H](N)C[C@@H]2N)[C@H](O)[C@@H](O)[C@@H]1O [Kanamycin, reference compound] | 6 | 22 | 30 | 0 | 0 | 0 |  |  |  |  |  |  |  |  | 48.5 |
